Values after ≈ are worked out from the molar mass of the structure shown.
What was measured:
[1] = Protonation constants by (traditional) potentiometric titration (TPT), SUPERQUAD; settings: overall protonation, zero level H2L2−, 0.1 M NaNO3, 25 °C
From the text: Results were obtained from […] as overall stability constants (log β values); following the chosen zero level H2L^2−. This zero level H2L^2− was chosen in the calculations to avoid any accumulation of errors of protonation constants at different pH ranges. The log β results for reactions (4) and (5) obtained in the final refinements are listed in Table S3 (see Supporting Information) with error limits (±3σ), number of points/number of titrations and χ^2/Σ statistics.
The details of the experiments using (traditional) potentiometric titration are presented in the Supporting Information. The results of the determination by Sirius instrument are shown in the Supporting Information. Potentiometric titrations of the compounds were performed with the PCA200 apparatus (Sirius Analytical Instruments Ltd, Forest Row, East Sussex, UK).
Table S2. The effect of pH on aqueous solubility (mg/L) of aminoalkylbis(phosphonates) […]
Solubility (g/L) of Compound
Determination of the Protonation Constants Using (traditional) Potentiometric Titration. Reagents:
Aqueous 0.1 M NaOH was prepared from Titrisol ampoules (Merck) and 0.1 M HNO3 from Convol ampoules (BDH). The background solution was prepared by dissolving NaNO3 in deionised water.
The NaNO3 and NaCl used in reference electrode were p.a. grade (Merck). The water used in the dilutions and titration solutions was purified with Milli-RO and Milli-Q water purification systems […]
Potentiometric measurements: The protonation equilibria was studied in aqueous 0.1 M NaNO3 at 25.0 ± 0.1 °C through a series of potentiometric EMF titrations carried out with a Schott-Geräte GmbH […]
The cell arrangement for the measurement of the hydrogen ion concentration [H+] was as follows:
−RE […] equilibrium solution […] GE+ (1) where GE denotes a glass electrode (Schott N2680), and RE is Hg, Hg2Cl2 […] 0.01 M NaCl, 0.09 M NaNO3. Expression (2) is valid assuming that the activity coefficients are constant.
The cell parameter E0 and the liquid junction coefficient jH, valid in acidic solutions, were determined for each titration by adding a known amount of HNO3 to the background electrolyte. The value of the liquid junction coefficient jOH, valid in basic solutions, was determined periodically. Only stable EMF readings were used in the calculations.
During the measurements of the protonation equilibria, aqueous 0.1 M NaOH or 0.1 M HNO3 was […]
Four to eight independent titrations were carried out for each ligand. The number of data points used in […]
Data treatment: Protonation and deprotonation of the ligands were controlled by addition of HNO3 or NaOH. The curves of ZH versus pH were drawn to visualize the experimental data sets. ZH describes the average number of H+ ions added or liberated per mole of ligand and is given by the relationship […]
where CH denotes the total concentration of protons calculated over the zero level H2L2−.
In the evaluation of the equilibrium constants, the following two-component equilibria were utilized:
H2L2− ⇋ H2-xL(2+x)– + xH+ , x = 1–2; β–x (4) xH+ + H2L2− ⇋ Hx+2Lx–2, x = 1–3; βx (5)
Mathematical analysis of the systems involves a search for protonation models and equilibrium constants that best describe the experimental data. The calculations were carried out with the computer […]
1200). The sample standard deviation Σ and the χ2 statistics used as criteria in the selection of the models were those provided by the program. As a means to improve the confidence level, the error limits for log β values determined in this study are reported as three times the standard deviation estimated by the program.
Figure S2. ZH vs. pH for protonation of compounds (a) 1; (b) 2; (c) 3; (d) 4 and (e) 5.

[2] = Thermal analysis (TG/DTA and TGA 7); type: physicochemical; settings: for Td: 5 °C/min; for Temp. range of 1st cleavage: lower limit taken at 0.5 wt-%; for Td (decomposition onset): average from both instruments; for Td (decomposition onset) / Temp. range of dehydration / onset T of dehydration: heating rate 5 °C/min
Experimental: Thermal decomposition paths with evaluation of crystal water content were obtained parallel with two instruments; Perkin Elmer STA 6000 thermogravimetric TG/DTA and Perkin Elmer TGA 7 analyzers (Perkin Elmer, Massachusetts, USA). Measurements were carried out in an open platinum crucible (the higher 5 mm crucible was used in TG/DTA and a shallower 2 mm crucible in TGA 7) under air atmosphere (flow rate of 45 mL/min) with a heating rate of 5 °C/min over the temperature range of 25−700 °C. The temperature calibration of STA 6000 was made using melting points of indium (156.60 °C) and zinc (419.5 °C) standards. For TGA 7 magnetic Curie-point calibration technique (Alumel, Ni, Perkalloy, Fe) was used. The weight balance of both instruments was calibrated by measuring a standard weight of 50 mg at room temperature. The sample weights used in the measurements were about 4–8 mg, and for each bisphosphonate, it was attempted to keep the same on both instruments. The melting/dehydration/decomposition behavior of the compounds was also visually monitored using a Stuart Scientific SMP3 melting point apparatus.

[3] = Aqueous solubility of saturated solution at 21 °C (phosphorus determination by molybdenum blue spectrophotometry); settings: for pH of saturated solution: saturated aqueous solution, agitation time 30 min; for pH of saturated solution / solubility at 30 min: 21 °C; for solubility at 30 min: Milli-Q water, unbuffered, thermodynamic from solid
Experimental: (§1) A Jasco V-530 UV/Vis spectrophotometer was used for phosphorus determination at 880 nm wavelength. Filtered liquid samples were diluted to the appropriate volume with Milli-Q water and were digested with the persulphate oxidation technique in acidic medium at elevated temperature to convert aminobisphosponates to orthophosphate. In an acidic medium, ammonium molybdate and antimony potassium tartrate react with orthophosphate to form a phosphomolybdic acid that is reduced to intensively colored molybdenum blue by ascorbic acid [30].
(§2) The mixture containing an excess of the studied compound was first agitated for predetermined time with magnetic stirrer and before taking the sample mixture was allowed to stand for 24 h without stirring. The sample (about 5 mL) was taken from liquid above the solids, pH was measured and the sample was filtered through 0.2 µm membrane filter to remove any possible insoluble particles. The phosphorus concentration in the filtered sample solution was determined by using the spectrophotometric method described above.

[4] = Effect of pH on aqueous solubility; settings: for solubility at 30 min: water, pH adjusted with NaOH or HCl, 21 °C, thermodynamic from solid; for pH of solubility minimum: pH range 0.5 to 11.0
Experimental: as §1, §2

| Structure (SMILES) | Td ([2]; TG/DTA, higher crucible, air) | Temp. range of 1st cleavage ([2]; TG/DTA, higher crucible) | Td ([2]; TGA 7, shallow crucible, air) | Temp. range of 1st cleavage ([2]; TGA 7, shallow crucible) | Td (decomposition onset) ([2]; air) | pH of saturated solution [3] | solubility at 30 min ([4]; pH 0, aqueous buffer) | solubility at 30 min ([4]; pH 1, aqueous buffer) | solubility at 30 min ([4]; pH 2, aqueous buffer) | solubility at 30 min ([4]; pH 3, aqueous buffer) | solubility at 30 min ([4]; pH 4, aqueous buffer) | solubility at 30 min ([4]; pH 5, aqueous buffer) | solubility at 30 min ([4]; pH 6, aqueous buffer) | solubility at 30 min ([4]; pH 7, aqueous buffer) | solubility at 30 min ([4]; pH 8, aqueous buffer) | solubility at 30 min ([4]; pH 9, aqueous buffer) | Onset temperature of first cleavage ([2]; TG/DTA, higher crucible) | Onset temperature of first cleavage ([2]; TGA 7, shallow crucible) | solubility at 30 min ([3]; water) | temperature of first decomposition step (cleavage of amino group / degradation) ([2]; thermogravimetry, air) | other results |
| --- | --- | --- | --- | --- | --- | --- | --- | --- | --- | --- | --- | --- | --- | --- | --- | --- | --- | --- | --- | --- | --- |
| NCCCC(O)(P(=O)(O)O)P(=O)(O)O [Compound 2, (4-amino-1-hydroxybutylidene)bisphosphonic acid, reference compound] | 222 °C | 168–252 °C | 225 °C | 166–253 °C | 224 °C | 1.94 | – | – | – | – | – | – | – | – | – | – | – | – | – | – | logβx ± 3σ, x = 1 (H3L−) [1]: 6.26 ± 0.01; logβx ± 3σ, x = 2 (H4L) [1]: 8.38 ± 0.02; logβx ± 3σ, x = 3 (H5L+) [1]: 8.98 ± 0.20; logβx ± 3σ, x = −1 (HL3−) [1]: −10.69 ± 0.01; logβx ± 3σ, x = −2 (L4−) [1]: −22.82 ± 0.02; Onset of 1st cleavage (in parentheses) ([2]; TG/DTA, higher crucible): 222 °C; Onset of 1st cleavage (in parentheses) ([2]; TGA 7, shallow crucible): 225 °C |
| NCCCCCCCCC(O)(P(=O)(O)O)P(=O)(O)O [Compound 6, (9-Amino-1-hydroxynonylidene)bisphosphonic acid] | 190 °C | 33–175 °C | 191 °C | 33–173 °C | 191 °C | 2.51 | 2.1 mg/mL (≈ 6580 µM) | 1.15 mg/mL (≈ 3600 µM) | 0.86 mg/mL (≈ 2690 µM) | 1.17 mg/mL (≈ 3670 µM) | 1.08 mg/mL (≈ 3380 µM) | 1.11 mg/mL (≈ 3480 µM) | 1.23 mg/mL (≈ 3850 µM) | 1.19 mg/mL (≈ 3730 µM) | 1.23 mg/mL (≈ 3850 µM) | 1.19 mg/mL (≈ 3730 µM) | 77 °C | 84 °C | 2.07 mg/mL (≈ 6470 µM) | – | solubility at 30 min ([4]; pH 10, aqueous buffer): 1.2 mg/mL (≈ 3760 µM); solubility at 30 min ([4]; pH 11, aqueous buffer): 1.27 mg/mL (≈ 3980 µM); Temp. range of dehydration ([2]; air): 33–175 °C; onset T of dehydration ([2]; air): 81 °C; temperature at which dehydration is initiated ([2]; thermogravimetry, air): ~ 90 °C |
| NCCCCCCCCCC(O)(P(=O)(O)O)P(=O)(O)O [Compound 7, (10-Amino-1-hydroxydecylidene)bisphosphonic acid] | 185 °C | 175–211 °C | 189 °C | 161–227 °C | 187 °C | 3.28 | – | – | – | – | – | – | – | – | – | – | 185 °C | 189 °C | 0.217 mg/mL (≈ 651 µM) | about 200 °C | water solubility (in words) ([3]; water): hundreds of milligrams |
| NCCCCCCCCCCC(O)(P(=O)(O)O)P(=O)(O)O [Compound 8, (11-Amino-1-hydroxyundecylidene)bisphosphonic acid] | 199 °C | 50–146 °C | 204 °C | 39–149 °C | 202 °C | 4.71 | 0.18 mg/mL (≈ 518 µM) | 0.08 mg/mL (≈ 230 µM) | 0.05 mg/mL (≈ 144 µM) | 0.08 mg/mL (≈ 230 µM) | 0.18 mg/mL (≈ 518 µM) | 0.23 mg/mL (≈ 662 µM) | 0.27 mg/mL (≈ 777 µM) | 0.29 mg/mL (≈ 835 µM) | 0.25 mg/mL (≈ 720 µM) | 0.29 mg/mL (≈ 835 µM) | 73 °C | 70 °C | 0.058 mg/mL (≈ 167 µM) | 200 °C | pH of solubility minimum [4]: ~2; solubility at 30 min ([4]; pH 10, aqueous buffer): 0.4 mg/mL (≈ 1150 µM); solubility at 30 min ([4]; pH 11, aqueous buffer): 0.37 mg/mL (≈ 1070 µM); Temp. range of dehydration ([2]; air): 40–148 °C; onset T of dehydration ([2]; air): 72 °C |
| NCCCCCCCCCCCC(O)(P(=O)(O)O)P(=O)(O)O [Compound 9, (12-Amino-1-hydroxydodecylidene)bisphosphonic acid] | 185 °C | 163–232 °C | 191 °C | 155–221 °C | 188 °C | 4.05 | 0.13 mg/mL (≈ 360 µM) | 0.08 mg/mL (≈ 221 µM) | 0.07 mg/mL (≈ 194 µM) | 0.08 mg/mL (≈ 221 µM) | 0.14 mg/mL (≈ 387 µM) | 0.2 mg/mL (≈ 554 µM) | 0.21 mg/mL (≈ 581 µM) | 0.2 mg/mL (≈ 554 µM) | 0.24 mg/mL (≈ 664 µM) | 0.25 mg/mL (≈ 692 µM) | 185 °C | 191 °C | 0.03 mg/mL (≈ 83 µM) | about 200 °C | pH of solubility minimum [4]: ~2; solubility at 30 min ([4]; pH 10, aqueous buffer): 0.4 mg/mL (≈ 1110 µM); solubility at 30 min ([4]; pH 11, aqueous buffer): 0.47 mg/mL (≈ 1300 µM) |
| NCCCCCCCCCCCCCCCC(O)(P(=O)(O)O)P(=O)(O)O [Compound 10, (16-Amino-1-hydroxyhexadecylidene)bisphosphonic acid] | 178 °C | 150–248 °C | 181 °C | 146–245 °C | 180 °C | 7.79 | – | – | – | – | – | – | – | – | – | – | 178 °C | 181 °C | 0.039 mg/mL (≈ 93.4 µM) | about 200 °C | – |

Source: publication PMC6268373, “Systematic Study of the Physicochemical Properties of a Homologous Series of Aminobisphosphonates” (Molecules, 2012)
